{"source": "PubChem BioAssay AID1963850", "about": "(Molecular Pharmacology Branch, DTP, NCI, 2024);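 further: spheroids exposed to drugs for seven days before reading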;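 on viability, T/C: 100% = DMSO vehicle control viability in luminescence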", "tested_on": "192522-019-R-J2-PDC complex tumor spheroid viability", "assay": "Anticancer human tumor 192522-019-R-J2-PDC patient-derived colon adenocarcinoma cell line growth inhibition [POLQ]", "details": "for IC50: curve of first compound; for viability, T/C: stronger effect = lower value", "summary_of_the_method": "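Growth inhibition in 3D: complex spheroids (tumor PDC, HUVEC, MSC) treated with POLQ inhibitor combinations; where Cmax unknown, highest tested concentration 10 microM, except SN-38 at 1 microM.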", "key": {"[1]": {"details": "second compound 0.0316 µM, first compound 0.0316 µM"}, "[2]": {"details": "second compound 0.0316 µM, first compound 0.1 µM"}, "[3]": {"details": "second compound 0.0316 µM, first compound 0.316 µM"}, "[4]": {"details": "second compound 0.0316 µM, first compound 1 µM"}, "[5]": {"details": "second compound 0.0316 µM, first compound 3.16 µM"}, "[6]": {"details": "second compound 0.0316 µM, first compound 10 µM"}, "[7]": {"details": "second compound 0.1 µM, first compound 0.0316 µM"}, "[8]": {"details": "second compound 0.1 µM, first compound 0.1 µM"}, "[9]": {"details": "second compound 0.1 µM, first compound 0.316 µM"}, "[10]": {"details": "second compound 0.1 µM, first compound 1 µM"}, "[11]": {"details": "second compound 0.1 µM, first compound 3.16 µM"}, "[12]": {"details": "second compound 0.1 µM, first compound 10 µM"}, "[13]": {"details": "second compound 0.316 µM, first compound 0.0316 µM"}, "[14]": {"details": "second compound 0.316 µM, first compound 0.1 µM"}, "[15]": {"details": "second compound 0.316 µM, first compound 0.316 µM"}, "[16]": {"details": "second compound 0.316 µM, first compound 1 µM"}, "[17]": {"details": "second compound 0.316 µM, first compound 3.16 µM"}, "[18]": {"details": "second compound 0.316 µM, first compound 10 µM"}, "[19]": {"details": "second compound 1 µM, first compound 0.0316 µM"}, "[20]": {"details": "second compound 1 µM, first compound 0.1 µM"}, "[21]": {"details": "second compound 1 µM, first compound 0.316 µM"}, "[22]": {"details": "second compound 1 µM, first compound 1 µM"}, "[23]": {"details": "second compound 1 µM, first compound 3.16 µM"}, "[24]": {"details": "second compound 1 µM, first compound 10 µM"}, "[25]": {"details": "second compound 3.16 µM, first compound 0.0316 µM"}, "[26]": {"details": "second compound 3.16 µM, first compound 0.1 µM"}, "[27]": {"details": "second compound 3.16 µM, first compound 0.316 µM"}, "[28]": {"details": "second compound 3.16 µM, first compound 1 µM"}, "[29]": {"details": "second compound 3.16 µM, first compound 3.16 µM"}, "[30]": {"details": "second compound 3.16 µM, first compound 10 µM"}, "[31]": {"details": "second compound 10 µM, first compound 0.0316 µM"}, "[32]": {"details": "second compound 10 µM, first compound 0.1 µM"}, "[33]": {"details": "second compound 10 µM, first compound 0.316 µM"}, "[34]": {"details": "second compound 10 µM, first compound 1 µM"}, "[35]": {"details": "second compound 10 µM, first compound 3.16 µM"}, "[36]": {"details": "second compound 10 µM, first compound 10 µM"}}}
{"smiles": "COc1cc2cc(C(=O)CCC(=O)O)sc2cc1OC", "note": "+ Cc1cccc(N(C)C(=O)C2C(O)CCN2c2nc(C)cc(C(F)(F)F)c2C#N)c1", "values": [{"measurement": "IC50", "setting": "second compound 0.0316 µM", "result": "> 10000", "unit": "nM"}, {"measurement": "IC50", "setting": "second compound 0.1 µM", "result": "> 10000", "unit": "nM"}, {"measurement": "IC50", "setting": "second compound 0.316 µM", "result": "> 10000", "unit": "nM"}, {"measurement": "IC50", "setting": "second compound 1 µM", "result": "> 10000", "unit": "nM"}, {"measurement": "IC50", "setting": "second compound 3.16 µM", "result": "> 10000", "unit": "nM"}, {"measurement": "IC50", "setting": "second compound 10 µM", "result": "> 10000", "unit": "nM"}, {"measurement": "viability, T/C", "setting": "[1]", "result": 114, "unit": "%"}, {"measurement": "viability, T/C", "setting": "[2]", "result": 97.4, "unit": "%"}, {"measurement": "viability, T/C", "setting": "[3]", "result": 94.9, "unit": "%"}, {"measurement": "viability, T/C", "setting": "[4]", "result": 95.8, "unit": "%"}, {"measurement": "viability, T/C", "setting": "[5]", "result": 98.7, "unit": "%"}, {"measurement": "viability, T/C", "setting": "[6]", "result": 92.5, "unit": "%"}, {"measurement": "viability, T/C", "setting": "[7]", "result": 107, "unit": "%"}, {"measurement": "viability, T/C", "setting": "[8]", "result": 99.6, "unit": "%"}, {"measurement": "viability, T/C", "setting": "[9]", "result": 96.1, "unit": "%"}, {"measurement": "viability, T/C", "setting": "[10]", "result": 110, "unit": "%"}, {"measurement": "viability, T/C", "setting": "[11]", "result": 103, "unit": "%"}, {"measurement": "viability, T/C", "setting": "[12]", "result": 107, "unit": "%"}, {"measurement": "viability, T/C", "setting": "[13]", "result": 102, "unit": "%"}, {"measurement": "viability, T/C", "setting": "[14]", "result": 100, "unit": "%"}, {"measurement": "viability, T/C", "setting": "[15]", "result": 93.8, "unit": "%"}, {"measurement": "viability, T/C", "setting": "[16]", "result": 101, "unit": "%"}, {"measurement": "viability, T/C", "setting": "[17]", "result": 104, "unit": "%"}, {"measurement": "viability, T/C", "setting": "[18]", "result": 110, "unit": "%"}, {"measurement": "viability, T/C", "setting": "[19]", "result": 101, "unit": "%"}, {"measurement": "viability, T/C", "setting": "[20]", "result": 106, "unit": "%"}, {"measurement": "viability, T/C", "setting": "[21]", "result": 97.7, "unit": "%"}, {"measurement": "viability, T/C", "setting": "[22]", "result": 108, "unit": "%"}, {"measurement": "viability, T/C", "setting": "[23]", "result": 108, "unit": "%"}, {"measurement": "viability, T/C", "setting": "[24]", "result": 105, "unit": "%"}, {"measurement": "viability, T/C", "setting": "[25]", "result": 108, "unit": "%"}, {"measurement": "viability, T/C", "setting": "[26]", "result": 104, "unit": "%"}, {"measurement": "viability, T/C", "setting": "[27]", "result": 96.3, "unit": "%"}, {"measurement": "viability, T/C", "setting": "[28]", "result": 96.6, "unit": "%"}, {"measurement": "viability, T/C", "setting": "[29]", "result": 101, "unit": "%"}, {"measurement": "viability, T/C", "setting": "[30]", "result": 105, "unit": "%"}, {"measurement": "viability, T/C", "setting": "[31]", "result": 103, "unit": "%"}, {"measurement": "viability, T/C", "setting": "[32]", "result": 102, "unit": "%"}, {"measurement": "viability, T/C", "setting": "[33]", "result": 103, "unit": "%"}, {"measurement": "viability, T/C", "setting": "[34]", "result": 102, "unit": "%"}, {"measurement": "viability, T/C", "setting": "[35]", "result": 111, "unit": "%"}, {"measurement": "viability, T/C", "setting": "[36]", "result": 97.4, "unit": "%"}]}
{"smiles": "CC1COCCN1c1cc(-c2ccnn2C)c2ccnc(-c3ccn[nH]3)c2n1", "note": "(centres undefined) + Nc1ccc(C#CCN(C(=O)Cc2ncc(C(F)(F)F)cc2C(F)(F)F)c2ccc(F)cc2)nn1", "values": [{"measurement": "IC50", "setting": "second compound 0.0316 µM", "result": 592, "unit": "nM"}, {"measurement": "IC50", "setting": "second compound 0.1 µM", "result": 444, "unit": "nM"}, {"measurement": "IC50", "setting": "second compound 0.316 µM", "result": 508, "unit": "nM"}, {"measurement": "IC50", "setting": "second compound 1 µM", "result": 651, "unit": "nM"}, {"measurement": "IC50", "setting": "second compound 3.16 µM", "result": 570, "unit": "nM"}, {"measurement": "IC50", "setting": "second compound 10 µM", "result": 895, "unit": "nM"}, {"measurement": "viability, T/C", "setting": "[1]", "result": 104, "unit": "%"}, {"measurement": "viability, T/C", "setting": "[2]", "result": 83.7, "unit": "%"}, {"measurement": "viability, T/C", "setting": "[3]", "result": 59.6, "unit": "%"}, {"measurement": "viability, T/C", "setting": "[4]", "result": 37, "unit": "%"}, {"measurement": "viability, T/C", "setting": "[5]", "result": 44, "unit": "%"}, {"measurement": "viability, T/C", "setting": "[6]", "result": 46.1, "unit": "%"}, {"measurement": "viability, T/C", "setting": "[7]", "result": 101, "unit": "%"}, {"measurement": "viability, T/C", "setting": "[8]", "result": 86.1, "unit": "%"}, {"measurement": "viability, T/C", "setting": "[9]", "result": 54.1, "unit": "%"}, {"measurement": "viability, T/C", "setting": "[10]", "result": 38.7, "unit": "%"}, {"measurement": "viability, T/C", "setting": "[11]", "result": 40.2, "unit": "%"}, {"measurement": "viability, T/C", "setting": "[12]", "result": 46.2, "unit": "%"}, {"measurement": "viability, T/C", "setting": "[13]", "result": 96.8, "unit": "%"}, {"measurement": "viability, T/C", "setting": "[14]", "result": 93.5, "unit": "%"}, {"measurement": "viability, T/C", "setting": "[15]", "result": 53.6, "unit": "%"}, {"measurement": "viability, T/C", "setting": "[16]", "result": 35.5, "unit": "%"}, {"measurement": "viability, T/C", "setting": "[17]", "result": 45.6, "unit": "%"}, {"measurement": "viability, T/C", "setting": "[18]", "result": 54.2, "unit": "%"}, {"measurement": "viability, T/C", "setting": "[19]", "result": 95.8, "unit": "%"}, {"measurement": "viability, T/C", "setting": "[20]", "result": 84.5, "unit": "%"}, {"measurement": "viability, T/C", "setting": "[21]", "result": 61.4, "unit": "%"}, {"measurement": "viability, T/C", "setting": "[22]", "result": 40.2, "unit": "%"}, {"measurement": "viability, T/C", "setting": "[23]", "result": 41.2, "unit": "%"}, {"measurement": "viability, T/C", "setting": "[24]", "result": 45, "unit": "%"}, {"measurement": "viability, T/C", "setting": "[25]", "result": 100, "unit": "%"}, {"measurement": "viability, T/C", "setting": "[26]", "result": 81.9, "unit": "%"}, {"measurement": "viability, T/C", "setting": "[27]", "result": 59.6, "unit": "%"}, {"measurement": "viability, T/C", "setting": "[28]", "result": 36.5, "unit": "%"}, {"measurement": "viability, T/C", "setting": "[29]", "result": 42, "unit": "%"}, {"measurement": "viability, T/C", "setting": "[30]", "result": 47.1, "unit": "%"}, {"measurement": "viability, T/C", "setting": "[31]", "result": 97.8, "unit": "%"}, {"measurement": "viability, T/C", "setting": "[32]", "result": 85.9, "unit": "%"}, {"measurement": "viability, T/C", "setting": "[33]", "result": 63.9, "unit": "%"}, {"measurement": "viability, T/C", "setting": "[34]", "result": 43.5, "unit": "%"}, {"measurement": "viability, T/C", "setting": "[35]", "result": 46.3, "unit": "%"}, {"measurement": "viability, T/C", "setting": "[36]", "result": 50.8, "unit": "%"}]}
